# Reference: patent US20080045463A1, “Methods For Lowering Hif-1 Mediated Gene Expression” (priority 2004, published 2008)
# Entries after “also recorded” stand apart in the source; their conditions may differ. Where a SMILES comes first, the peptide text is derived from it. The star is where a group is joined. Cbz = O=C(OCc1ccccc1)*
# Experiments:
# HIF-1α [1] = assay: HIF-1α hydroxyproline detection in U251 whole cell extracts; format: cell-based, human; conditions: U251, four hours, antibody to hydroxylated ODD region
# Method: (§1) Protein extraction, western blot analysis, and immunocytochemistry were performed as previously described. Mouse monoclonal anti-HIF-1α antibodies were 610958 (BD Biosciences), and NB100-123 (Novus). Mouse monoclonal anti-GFP antibody was 1814460 (Roche). Mouse monoclonal anti-β-actin antibody was ab6276-100 (Abcam). Dimethyloxalylglycine was D1070 (Frontier Scientific). All other chemicals were from Sigma. Antibodies recognizing HPH homologues were from Novus biologicals and the antisera recognizing […] of HIF-1α was kindly provided by R. Freeman.
# Some reactive oxygen species can also induce HIF-1α. […] Next, attention was focused on HIF-1α proline hydroxylation as a target for 2-oxoacids.
# HIF-1α [2] = assay: Nuclear HIF-1α accumulation in human cancer cell lines (western blot); format: cell-based; conditions: for HIF-1α accumulation by hypoxia or the iron chelator DFO: FIG. 3C, 1% O2 or 150 μM DFO; for inhibition of HIF-1α accumulation, L- vs D-isomers and dimer: U87, four hours, glucose-free Krebs, 1 mM pyruvate or oxaloacetate, 250 μM (FIG. 3C); for NO induced HIF-1α accumulation: U251, MEM, DETA-NO 300 μM, ascorbate 100 μM, Fe(II) 100 μM, GSH 5 mM; for HIF-1α accumulation induced by metabolite: substituted for glucose in Krebs buffer, normoxia
# Method: Human U87, U251, U251-HRE (20) and U373 glioma cells were cultured in Eagle's MEM medium (Mediatech). […] 22B Human head and neck cancer cells were cultured in high glucose DMEM (Gibco) containing 2 mM glutamine. C6 ODD-GFP rat glioma cells were cultured in high glucose DMEM with 1.5 mg/ml G418. All culture media were supplemented with 10% fetal bovine serum and 1% (v/v) penicillin/streptomycin. Rat C6 glioma cells were cultured in high glucose DMEM. For cell hypoxia treatment, the culture dishes were sealed in a modular incubator chamber, flushed with gas containing 1% O2, 5% CO2 and 94% N2 for 5 minutes, and incubated in this environment at 37° C. for indicated times.
# Protein extraction, western blot analysis, and immunocytochemistry were performed as previously described. […] Mouse monoclonal anti-β-actin antibody was ab6276-100 (Abcam). Dimethyloxalylglycine was D1070 (Frontier Scientific). All other chemicals were from Sigma.
# HPH1, HPH2, and HPH3 = assay: HPH prolyl hydroxylation assay with in vitro translated HPHs (35S-pVHL pulldown); format: biochemical, human; conditions: in the absence of ascorbate or other reducing agents
# Method: (§2) Human HPH-1,2,3 and VHL pcDNA3.1/V5-HIS vectors (kindly provided by R. Bruick) were used for TNT Coupled Reticulocyte Lysate in vitro transcription/translation (Promega). Cytoplasmic extract for HPH activity was made by lysing cell pellets in assay buffer (20 mM Tris, pH 7.5, 5 mM KCl, 1.5 mM MgCl2, and 1 mM DTT) at 4° C. using a homogenizer, centrifuging at 20,000 g for 15 minutes and collecting supernatant for the assay. HPH enzymatic reactions were performed as previously described using either IVT products or cell extracts. This assay, chosen for its specificity for the HPH reaction, was linear over 30 minutes. For each reaction, either 7.5 μL of IVT products or 100 μg of cell extract protein were used as source of the enzyme. Activity was measured by either quantitative scintillation counting or by autoradiography after gel electrophoresis on a 10-20% Tris Glycine gradient gel (Invitrogen).
# To determine whether HPH activity was directly modulated by pyruvate or oxaloacetate, Pro564 hydroxylation in a biotinylated HIF-1α ODD peptide by in vitro translated HPH1, HPH2, and HPH3 was examined. The ability of streptavidin beads to pull down ^35S-pVHL bound to the biotinylated peptide was used as evidence of HIF-1α ODD peptide hydroxylation. This is the most specific and sensitive assay for HPH activity. […] Such assays can also give high background values in cell extracts.
# VEGF and GLUT3 = assay: RT-PCR of HIF-1 regulated genes in U87 cells; format: cell-based, human; conditions: U87, 5× the level normally found in MEM, 2 d
# Method: Total RNA was isolated using the RNeasy kit (Qiagen). For RT-PCR, 1 μg of total RNA was used with the […] One-Step System (Invitrogen). VEGF, GLUT3, and β-Actin primers were described previously. For quantitative PCR analysis, the iQ SY BR Green Supermix and MyiQ Single-Color
# ODD-GFP = assay: Live cell assay for oxygen-dependent degradation, ODD-GFP transfected C6 glioma cells; format: cell-based, rat; conditions: C6 cells in Krebs buffer; for stimulation of basal ODD-GFP accumulation: 24 hours
# Method: (§3) Human U87, U251, U251-HRE (20) and U373 glioma cells were cultured in Eagle's MEM medium (Mediatech). DU145 human prostate cancer cells and 022 human head and neck cancer cells were cultured in RPMI 1640 medium (Sigma). 22B Human head and neck cancer cells were cultured in high glucose DMEM (Gibco) containing 2 mM glutamine. C6 ODD-GFP rat glioma cells were cultured in high glucose DMEM with 1.5 mg/ml G418. All culture media were supplemented with 10% fetal bovine serum and 1% (v/v) penicillin/streptomycin. Rat C6 glioma cells were cultured in high glucose DMEM. For cell hypoxia treatment, the culture dishes were sealed in a modular incubator chamber, flushed with gas containing 1% O2, 5% CO2 and 94% N2 for 5 minutes, and incubated in this environment at 37° C. for indicated times.
# Next a live cell assay for oxygen-dependent HIF-1α degradation using C6 rat glioma cells that had been stably transfected with a vector encoding the HIF-1 cc ODD region fused to GFP (ODD-GFP) was performed. The ODD-GFP protein is hydroxylated and degraded in an oxygen dependent manner similar to HIF-1α. As with HIF-1α, a basal, as well as, hypoxia-inducible accumulation of ODD-GFP has been reported.
# HIF-1 = HIF-1 luciferase reporter assay in U251-HRE cells; format: cell-based, human; conditions: 8 h
# HIF-1α [3] = assay: HIF-1α decay after washout of inducer; format: cell-based, human; conditions: for HIF-1α decay following induction with pyruvate or oxaloacetate, iron in wash / decay of NO-induced HIF-1α with iron in wash / decay of accumulated HIF-1α after washing out DFO, iron added: 100 μM each
# Method: as §3, §1
# To test this U251 cells was exposed to glucose-free Krebs buffer to either hypoxia (1% O2) or 2 mM pyruvate for four hours. Nuclear HIF-1α protein accumulation was induced by both treatments (FIG. 6A). […] HIF-1α immunoreactivity disappeared rapidly upon reoxygenation (return to 21% O2) of hypoxic cells as would be expected with the resumption of oxygen-dependent HIF-1α hydroxylation and proteolysis. […] To directly determine if the HPH activity in glioma cells was reversibly inactivated by pyruvate and oxaloacetate the ^35S-pVHL pulldown assay to measure HPH activity in extracts from cells treated for four hours with the 2-oxoacids was used. To capture the endogenous state of HPH activity, the cell extracts were first assayed without supplementation with exogenous reductants, ascorbate, or iron. […] The minimal HPH activity of extracts from pyruvate or oxaloacetate treated cells could also be restored by supplementation of the extracts with ascorbate or with exogenous ferrous iron (FeSO4) during the assay (FIG. 6D).
# HIF-1α [4] = assay: HIF-1α accumulation in 22B head and neck cancer cells; format: cell-based, human; conditions: 22B cells, 100 μM each, last 30 minutes after 24 hours accumulation
# Method: as §3, §1
# HPH [5] = assay: 2-Oxoglutarate: HPH binding assay; set-up: species or system human; conditions: for displacement of iron dependent binding of 35S-HPHs to immobilized 2-OG: competitor 10 mM
# Method: Gel was washed four times with the indicated buffer. Analysis of HPH binding was measured by scintillation counting.
# [6] = tested on: labile intracellular iron pool; assay: Calcein fluorescence assay for cellular free iron; format: cell-based, human; conditions: calcein loaded U251 cells
# Method: The ability of 2-oxoacids to chelate the labile intracellular iron pool was measured using the calcein fluorescence assay as previously described. The iron chelators desferrioxamine and bipyridyl were used as positive controls.
# HPH [7] = assay: HPH activity in extracts of treated U251 cells (35S-pVHL pulldown); format: cell-based, human; conditions: 100 μM each
# Method: as §2
# To test this U251 cells was exposed to glucose-free Krebs buffer to either hypoxia (1% O2) or 2 mM pyruvate for four hours. Nuclear HIF-1α protein accumulation was induced by both treatments (FIG. 6A). Then the cells were either returned to 21% O2 or the pyruvate was removed by extensively washing with glucose-free Krebs buffer. […]
compound,measurement,setting,value
CC(C)C[C@@H](C=O)NC(=O)[C@H](CC(C)C)NC(=O)[C@H](CC(C)C)NC(=O)OCc1ccccc1 [MG132] (Cbz-Leu-Leu-Leu-aldehyde),hydroxyproline (Pro564) in induced HIF-1α,HIF-1α [1],hydroxyproline was detected
N[C@@H](CS)C(=O)O [cysteine],HIF-1α accumulation by hypoxia or the iron chelator DFO,HIF-1α [2],did not affect
same,inhibition of basal HIF-1α accumulation,"HIF-1α [2]; U87, Krebs buffer reconstituted with MEM additives at concentration normally present in MEM, four hours",key amino acids responsible for inhibiting basal HIF-1α accumulation
same,"inhibition of HIF-1α accumulation, L- vs D-isomers and dimer",HIF-1α [2],effective
same,"HIF-1α induction by glucose, pyruvate, and oxaloacetate",HIF-1α [2]; all cell lines used in this study (data not shown),lowered HIF-1α induction
same,inhibition of basal HIF-1α accumulation in complete culture media,HIF-1α [2]; amino acid raised to 5× its normal level in MEM,likely endogenous inhibitors of basal HIF-1α accumulation
same,stimulation of HIF-1α ODD hydroxylation,"HPH1, HPH2, and HPH3",dose dependently stimulate HIF-1α ODD hydroxylation
same,basal expression of the HIF-1 regulated genes VEGF and GLUT3,VEGF and GLUT3,lowered the basal expression
same,ODD-GFP induction by pyruvate or oxaloacetate,ODD-GFP; amino acids 0.5 mM,reduced ODD-GFP induction
same,HRE-luciferase activity induced by pyruvate or oxaloacetate,"HIF-1; 2 mM 2-oxoacid, 250 μM amino acid",lowered HRE-luciferase activity
N[C@@H](Cc1c[nH]cn1)C(=O)O [histidine],stimulation of HIF-1α ODD hydroxylation,"HPH1, HPH2, and HPH3",dose dependently stimulate HIF-1α ODD hydroxylation
same,basal expression of the HIF-1 regulated genes VEGF and GLUT3,VEGF and GLUT3,lowered the basal expression
"N[C@@H](CCC(=O)N[C@@H](CS)C(=O)NCC(=O)O)C(=O)O [GSH, glutathione]",HIF-1α accumulation by hypoxia or the iron chelator DFO,HIF-1α [2],not by hypoxia or DFO
same,"inhibition of HIF-1α accumulation, L- vs D-isomers and dimer",HIF-1α [2],selectively inhibited
same,NO induced HIF-1α accumulation,HIF-1α [2],complete inhibition
same,HIF-1α decay with agent added to the wash,"HIF-1α [3]; U87 after pyruvate or oxaloacetate, 100 μM ascorbate, 5 mM GSH or MEM amino acid mixture",HIF-1α decay was rapidly resumed
[Fe+3] [Fe(III)],accumulated (pyruvate-enhanced) HIF-1α after supplementation,HIF-1α [4],Fe(II)>Fe(III)
same,accumulated (pyruvate-enhanced) HIF-1α after supplementation,HIF-1α [4]; listed as ferric iron,diminished to a greater extent by ferrous iron than by ferric iron
same,"HIF-1α decay following induction with pyruvate or oxaloacetate, iron in wash",HIF-1α [3],not Fe(III)
same,decay of NO-induced HIF-1α with iron in wash,HIF-1α [3],not Fe(III)
same,"decay of accumulated HIF-1α after washing out DFO, iron added",HIF-1α [3],not Fe(III)
O=C(O)/C=C/C(=O)O [fumarate],HIF-1α accumulation induced by metabolite,HIF-1α [2]; four hours,unable to induce HIF-1α accumulation; also recorded: did not find a significant effect
same,displacement of iron dependent binding of 35S-HPHs to immobilized 2-OG,HPH [5],did not find a significant effect
same,stimulation of basal ODD-GFP accumulation,ODD-GFP,did not find a significant effect
same,induction of HIF-1 regulated reporter gene (HRE-luciferase),HIF-1,did not find a significant effect
c1ccc(-c2ccccn2)nc1 [bipyridyl],intracellular calcein fluorescence,[6],increase in fluorescence
O=C(O)CCC(=O)O [Succinate],HIF-1α accumulation induced by metabolite,HIF-1α [2]; four hours,unable to induce HIF-1α accumulation
same,HIF-1α accumulation induced by metabolite,"HIF-1α [2]; four hours, listed as succinate",did not find a significant effect
same,displacement of iron dependent binding of 35S-HPHs to immobilized 2-OG,HPH [5],not by succinate; also recorded: did not find a significant effect
same,stimulation of basal ODD-GFP accumulation,ODD-GFP,not by succinate; also recorded: did not find a significant effect
same,induction of HIF-1 regulated reporter gene (HRE-luciferase),HIF-1,did not find a significant effect
NCCN(CCN)[N+]([O-])=NO [NO],HIF-1α accumulation induced by oxidant,"HIF-1α [2]; U251 cells, four hours",induce HIF-1α accumulation
same,HIF-1α decay after washing of NO treated cells,HIF-1α [3]; extensive washing with MEM,sluggish HIF-1α decay
O=S(=O)([O-])[O-].[Fe+2] [Fe(II)],accumulated (pyruvate-enhanced) HIF-1α after supplementation,HIF-1α [4],Fe(II)>Fe(III)
same,accumulated (pyruvate-enhanced) HIF-1α after supplementation,HIF-1α [4]; listed as ferrous iron,diminished to a greater extent by ferrous iron than by ferric iron
same,HIF-1α induction by pyruvate and oxaloacetate with iron added to cultured cells,"HIF-1α [2]; U251, Fe(II) 100 μM",prevented HIF-1α induction
same,NO induced HIF-1α accumulation,HIF-1α [2],complete inhibition
same,binding of 35S-HPH homologues to the 2-OG column,HPH [5]; addition of 200 μM ferrous iron,doubled
same,"HPH activity of extracts from pyruvate or oxaloacetate treated cells, extract supplemented during assay",HPH [7],restored
same,intracellular calcein fluorescence,[6],decrease in fluorescence
same,"HIF-1α decay following induction with pyruvate or oxaloacetate, iron in wash",HIF-1α [3],enhancement of HIF-1α decay
same,decay of NO-induced HIF-1α with iron in wash,HIF-1α [3],accelerated the decay
same,"decay of accumulated HIF-1α after washing out DFO, iron added",HIF-1α [3],promoted decay
"O=C(O)CCC(=O)C(=O)O [2-OG, 2-oxoglutarate]",displacement of iron dependent binding of 35S-HPHs to immobilized 2-OG,HPH [5],readily displaced
"CC(=O)N(O)CCCCCNC(=O)CCC(=O)N(O)CCCCCNC(=O)CCC(=O)N(O)CCCCCN [DFO, desferrioxamine]",intracellular calcein fluorescence,[6],increase in fluorescence
